The record followed here is patent publication US12023335B2, “Method for treating pancreatic cancer” (PTC THERAPEUTICS, INC., priority 2018, dated 2024).

The test system of experiment [1] is tubulin. Description: Analysis of free tubulin content in Aspc1 cells (fractionation, western blot). Format: cell-based, human. The following applies: 3.0 μM, 2 hours, relative to vehicle, COL and TAX (FIGS. 11a, 11b). How it is done: Western blotting was carried out on lysates isolated from treated cells. Cells were lysed using RIPA buffer (50 mM Tris, pH 7.4, 150 mM NaCl, 1% Nonidet P-40, 0.1% SDS, 0.5% deoxycholate) supplemented with cOmplete™ EDTA-free Protease Inhibitor Cocktail (Sigma, 11836170001) and Halt™ Phosphatase Inhibitor Cocktail (ThermoFisher, 78420). Lysates were quantified using the Pierce BCA Protein Assay Kit (ThermoFisher, 23227), diluted in SDS sample buffer, resolved by SDS-PAGE (15-30 μg/sample), and transferred onto PVDF membranes. Membranes were blocked with 5% w/v nonfat dry milk in TBS-T (0.1% Tween20) and primary antibodies were incubated overnight at 4° C., diluted in 5% BSA in TBS-T at the indicated concentrations. HRP-conjugated secondary antibodies were incubated in blocking buffer for 1 hour at room temperature before detection using Super Digital-ECL™ substrate solution (Kindle Biosciences, R1002). (FIG. 5b, FIG. 10a and FIG. 11b)
Free heterodimer tubulin was separated from tubulin incorporated into microtubules according to manufacturer's recommendations using the Microtubule/Tubulin In Vivo Assay Biochem Kit (Cytoskeleton, #BK038). Cells were seeded in 12-well plates such that ˜16 hours later they would be approximately 50-60% confluent. […]

For experiment [2], the system named is J1002VEH and J1002TAM cells. The experiment is described as follows: Cell cycle analysis of J1002VEH and J1002TAM cells. Format: cell-based, mouse. The procedure:
Cells were seeded into 12-well or 6-well plates such that 16 hours later they would be approximately 30-50% confluent. Cells were then treated for 24 hours with either DMSO (<0.003%), Compound 1 (100 nM or 1 μM), or 100 nM nocodazole (Sigma, M1404). Following treatment, cells were harvested and fixed in ice-cold 70% ethanol for a minimum of one hour. Following fixation, cells were re-suspended in PBS+2% FBS+3 μM DAPI (BioLegend, 422801) or 0.25 μg 7-AAD (BD Pharmingen, 559925), and analyzed on a MACSQuant® Analyzer 10 (Miltenyi Biotec) or BD LSR II™. For cell cycle analysis time course experiments, cells were prepared as described above, except treated for 24, 48, or 72 hours. Data was analyzed using FlowJo software. Percent populations in G2/M were identified using the univariate cell cycle platform offered by FlowJo software. Percent populations >4N were determined by gating above the 4N population of DMSO-treated cells. (FIG. 1b, FIG. 1c, FIG. 2a, FIG. 2b, FIG. 10e, and FIG. 10g)

Experiment [3] has as its system Aspc1 cells. Description: Active caspase 3 apoptosis flow cytometry in Aspc1 cells. The class given is cell-based, human. The following applies: 24, 48, 72 hours, relative to vehicle (FIGS. 3a, 3b). How it is done: For active Caspase-3 (ActCasp3) staining, the Caspase 3 (active) FITC Staining Kit (Abcam, ab65613) was used according to manufacturer's instructions. Cells were seeded in 12-well plates such that ˜16 hours later they would be approximately 50-60% confluent. […] Samples were analyzed on a BD LSR II™ and analyzed by FlowJo software. (FIG. 3a and FIG. 3b)

As for `Cc1nc2ccc(F)cc2n1-c1nc(N)c(F)c(Nc2ccc(C(F)(F)F)cc2)n1` [Compound 1, 5-fluoro-2-(6-fluoro-2-methyl-1H-benzo[d]imidazol-1-yl)-N4-[4-(trifluoromethyl)phenyl]pyrimidine-4,6-diamine], the “free tubulin vs microtubules in cell lysate fractions” value in experiment [1] is on record as “significant fold-change increase in prevention of tubulin formation”. Moreover, the “cell cycle distribution / polyploidy of J1002VEH and J1002TAM cells” value in experiment [2] (1.0 μM, 24 hours (FIGS. 10d-10g)) is “dose and time-dependent increase in the amount of BMI-1 dependent cells affected by polyploidy”. For the same compound, the “BMI-1 hyperphosphorylation (conclusion from FIG. 10 data as a whole)” value in experiment [2] (data taken as a whole) is on record as “induces BMI-1 hyperphosphorylation indirectly as a result of mitotic arrest”. Moreover, the “total apoptotic Aspc1 cells (active caspase 3+)” value in experiment [3] is “time-dependent increase in cell biomarkers that indicate a corresponding increase in cell apoptosis”.
